According to US12692274B2, “Tetrahydroisoquinoline derivatives for the treatment of red blood disorders and inflammatory diseases” (Sanofi, priority 2020, dated 2026):
Where “and” joins values, the source holds several entries; their conditions need not be identical. Equal entries are not always repeated.

How the values were obtained:
[1] = tested on: NQO1 activation in BEAS-2B cells; experiment: BEAS-2B cellular MTT assay of NQO1 activation, 0.3% HSA; type: cell-based
Outline: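 MTT read-out in BEAS-2B cells grown in BEBM with SingleQuots, no GA-1000, kept below 70% confluence; plates coated with collagen, with 0.3% or 0% HSA medium, seeded to 95-100% confluency at 48 h, 37 °C, 5% CO2.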

[2] = target: HIS-Keap1 full length / Biotin-Nrf2 (16-mer) (Homo sapiens, UniProt Q14145); experiment: biochemical
[3] = tested on: NQO1 activation in BEAS-2B cells; experiment: BEAS-2B cellular MTT assay of NQO1 activation, 0% HSA; type: cell-based
Outline: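 For the 0% HSA condition, cells were seeded into collagen plates in HSA-free medium. Culture was BEAS-2B in BEBM plus BEGM SingleQuots lacking GA-1000, held under 70% confluence, at a seeding density reaching 95-100% confluence by 48 h.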

[4] = BEAS+ W, read-out: BEAS+ W EC50
[5] = Homo sapiens, BEAS+ W, read-out: BEAS+ W EC50
[6] = Homo sapiens, Serum Free W, read-out: BEAS EC50 (nM) Serum Free W
[7] = Serum Free W, read-out: BEAS EC50 (nM) Serum Free W

Sequence of HIS-Keap1 full length / Biotin-Nrf2 (16-mer) (Q14145 whole entry): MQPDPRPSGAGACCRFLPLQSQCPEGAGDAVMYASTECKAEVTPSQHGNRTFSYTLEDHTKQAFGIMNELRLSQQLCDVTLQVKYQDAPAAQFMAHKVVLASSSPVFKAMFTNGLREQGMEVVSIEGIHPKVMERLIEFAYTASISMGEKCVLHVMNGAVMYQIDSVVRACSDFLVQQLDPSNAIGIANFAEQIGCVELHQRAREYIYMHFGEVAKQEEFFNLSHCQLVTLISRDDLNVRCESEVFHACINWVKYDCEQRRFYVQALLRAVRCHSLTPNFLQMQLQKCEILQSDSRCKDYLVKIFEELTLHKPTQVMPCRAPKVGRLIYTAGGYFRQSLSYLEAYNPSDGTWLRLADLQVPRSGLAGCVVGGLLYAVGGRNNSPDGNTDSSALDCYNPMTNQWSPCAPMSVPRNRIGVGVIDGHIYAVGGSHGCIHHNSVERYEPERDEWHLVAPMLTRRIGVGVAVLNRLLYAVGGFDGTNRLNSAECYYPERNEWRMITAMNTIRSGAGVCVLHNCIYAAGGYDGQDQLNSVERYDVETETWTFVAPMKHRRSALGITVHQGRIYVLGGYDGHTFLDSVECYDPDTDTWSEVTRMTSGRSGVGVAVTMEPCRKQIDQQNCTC

Compound | EC50 [1, 4] | EC50 [1, 5] | IC50 [2] | EC50 [3, 6] | EC50 [3, 7] | EC50 ([1]; BEAS+, read-out: BEAS+ EC50) | EC50 ([1]; Homo sapiens, BEAS+, read-out: BEAS+ EC50) | EC50 ([3]; Homo sapiens, serum free, read-out: BEAS EC50 (nM) serum free) | EC50 ([3]; serum free, read-out: BEAS EC50 (nM) serum free)
Cc1c2n(C)c3ccc(cc13)C/C=C\CCCn1nnc3c(C)c(cnc31)[C@@H](CC(=O)O)c1ccc3c(c1)CN(CC3)C2=O [Compound 65] | 23.9 nM | 18.4 nM | 1.5 nM and 1.6 nM | 3.7 nM | 2.7 nM |  |  |  | 
C[C@@H](C(=O)O)[C@H]1c2ccc(nc2)OCC/C=C/Cc2ccc(cc2)C(=O)N2CCc3ccc1cc3C2 [Compound 66] | 55.6 nM | 39.3 nM | 31.9 nM and 29.5 nM | 20.6 nM | 27.6 nM |  |  |  | 
Cc1c2cnc3c1nnn3CCCCCCCc1ccc(cc1)C(=O)N1CCc3ccc(cc3C1)[C@H]2CC(=O)O [Compound 67] | 166 nM | 159 nM | 14 nM and 14.5 nM | 23 nM | 23.5 nM |  |  |  | 
Cc1c2ccc3c1nnn3CCCCCCc1ccc3c(c1)cc(n3CCCF)C(=O)N1CCc3ccc(cc3C1)[C@@H]2CC(=O)O [Compound 69] | 549 nM | 494 nM | 0.9 nM and 0.7 nM | 7.7 nM | 9 nM |  |  |  | 
Cc1cc2cnc1OCCCCCc1ccc(cc1)C(=O)N1CCc3ccc(cc3C1)[C@H]2[C@H](C)C(=O)O [Compound 70] | 221 nM | 150 nM | 594 nM and 763 nM | 32.4 nM | 29.9 nM |  |  |  | 
Cc1cc2ncc1[C@H]([C@@H](C)C(=O)O)c1ccc3c(c1)CN(CC3)C(=O)c1ccc(cc1)CCCCCO2 [Compound 75] | 60 nM | 45.2 nM | 21.7 nM and 22.7 nM | 9.1 nM | 16 nM |  |  |  | 
Cc1c2cnc3c1nnn3CCCCCCCc1ccc(cc1)C(=O)N1CCc3ccc(cc3C1)[C@@H]2CC(=O)O [Compound 77] | 45.3 nM | 34.5 nM | 0.4 nM and 0.8 nM | 11.7 nM | 13.7 nM |  |  |  | 
Cc1cc2ncc1[C@H](CC(=O)O)c1ccc3c(c1)CN(CC3)C(=O)c1ccc(cc1)COCCCO2 [Compound 78] | 108 nM | 105 nM | 7.6 nM and 6 nM | 43 nM | 59.3 nM |  |  |  | 
Cc1cc2ncc1[C@@H](CC(=O)O)c1ccc3c(c1)CN(CC3)C(=O)c1ccc(cc1)COCCCO2 [Compound 81] | 1950 nM | 2160 nM | 251 nM and 220 nM | > 1000 nM | 1840 nM |  |  |  | 
Cc1cc2cnc1OCC/C=C/Cc1ccc(cc1)C(=O)N1CCc3ccc(cc3C1)[C@@H]2[C@@H](C)C(=O)O [Compound 83] | 8440 nM | > 10000 nM | 4420 nM and 3910 nM | > 1000 nM | 1780 nM |  |  |  | 
COCCn1c2cc3cc(ccc31)CCCCCCn1nnc3c(C)c(ccc31)[C@@H](CC(=O)O)c1ccc3c(c1)CN(CC3)C2=O [Compound 85] | 244 nM | 249 nM | 1.6 nM and 1.2 nM | 39.4 nM | 61.3 nM |  |  |  | 
COc1cc2ccc1CCCCCn1nnc3c(C)c(cnc31)[C@@H](CC(=O)O)c1ccc3c(c1)CN(CC3)C2=O [Compound 86] | 25.7 nM | 20.4 nM | 0.9 nM and 0.8 nM | 18 nM | 19.7 nM |  |  |  | 
COc1cc2ccc1CCCCCn1nnc3c(C)c(cnc31)[C@H](CC(=O)O)c1ccc3c(c1)CN(CC3)C2=O [Compound 87] | 38.1 nM | 40.5 nM | 0.8 nM and 0.9 nM | 13 nM | 18.2 nM |  |  |  | 
COc1cc2ccc1C(=O)N1CCc3ccc(cc3C1)[C@@H](CC(=O)O)c1cnc3c(nnn3CCCCC2)c1C [Compound 88] | 101 nM | 88.5 nM | 1 nM and 1.1 nM | 35.3 nM | 40.4 nM |  |  |  | 
COc1cc2ccc1C(=O)N1CCc3ccc(cc3C1)[C@H](CC(=O)O)c1cnc3c(nnn3CCCCC2)c1C [Compound 89] | 48.5 nM | 38.7 nM | 0.8 nM and 0.9 nM | 30.6 nM | 22.8 nM |  |  |  | 
Cc1c2ccc3c1nnn3CCCCCCc1c(F)c(F)c(c(F)c1F)C(=O)N1CCc3ccc(cc3C1)[C@@H]2CC(=O)O [Compound 90] | 3.5 nM | 3.6 nM | 1.1 nM | 1.3 nM | 1 nM |  |  |  | 
Cc1cc2cc3c1CCN(C3)C(=O)c1ccc(cc1)CCCCCCn1nnc3c(C)c(cnc31)[C@@H]2CC(=O)O [Compound 92] | 141 nM | 115 nM | 4.6 nM and 3.9 nM | 23.6 nM | 24.8 nM |  |  |  | 
Cc1cc2cc3c1CCN(C3)C(=O)c1ccc(cc1)CCCCCCn1nnc3c(C)c(cnc31)[C@H]2CC(=O)O [Compound 93] | 17.1 nM | 15.4 nM | 1.3 nM and 1.4 nM | 3.4 nM | 2.7 nM |  |  |  | 
COc1cc2ccc1C(=O)N1CCc3ccc(cc3C1)[C@H](CC(=O)O)c1cnc3c(nnn3CCCCCC2)c1C [Compound 94] | 52.3 nM | 51 nM | 1.1 nM and 1.3 nM | 36.8 nM | 63.2 nM |  |  |  | 

Compound | EC50 [1, 4] | EC50 [1, 5] | IC50 [2] | EC50 [3, 6] | EC50 [3, 7] | EC50 ([1]; BEAS+, read-out: BEAS+ EC50) | EC50 ([1]; Homo sapiens, BEAS+, read-out: BEAS+ EC50) | EC50 ([3]; Homo sapiens, serum free, read-out: BEAS EC50 (nM) serum free) | EC50 ([3]; serum free, read-out: BEAS EC50 (nM) serum free)
COc1cc2ccc1CCCCCCn1nnc3c(C)c(cnc31)[C@H](CC(=O)O)c1ccc3c(c1)CN(CC3)C2=O [Compound 95] | 124 nM | 92 nM | 1.8 nM and 1.9 nM | 53.1 nM | 64.8 nM |  |  |  | 
COc1cc2ccc1CCCCCCn1nnc3c(C)c(cnc31)[C@@H](CC(=O)O)c1ccc3c(c1)CN(CC3)C2=O [Compound 96] | 49.6 nM | 42.8 nM | 0.8 nM | 25.5 nM | 29.4 nM |  |  |  | 
Cc1cc2ccc1C(=O)N1CCc3ccc(cc3C1)[C@H](CC(=O)O)c1cnc(cc1C)OCCCCC2 [Compound 99] | 79 nM | 108 nM | 8.8 nM and 8.4 nM | 23.9 nM | 25.6 nM |  |  |  | 
Cc1cc2ccc1C(=O)N1CCc3ccc(cc3C1)[C@@H](CC(=O)O)c1cnc(cc1C)OCCCCC2 [Compound 100] | 9.1 nM | 8 nM | 1.1 nM and 1 nM | 1.7 nM | 1.6 nM |  |  |  | 
COc1cc2ccc1CCCCCCn1nnc3c(C)c(ccc31)[C@@H](CC(=O)O)c1ccc3c(c1)CN(CC3)C2=O [Compound 101] | 31 nM | 34.9 nM | 2.6 nM and 2.8 nM | 4.7 nM | 5.1 nM |  |  |  | 
COc1cc2ccc1CCCCCCn1nnc3c(C)c(ccc31)[C@H](CC(=O)O)c1ccc3c(c1)CN(CC3)C2=O [Compound 102] | 104 nM | 117 nM | 4.5 nM and 4.2 nM | 25.1 nM | 24.6 nM |  |  |  | 
COc1cc2ccc1CCCCCCn1nnc3c(C)c(cnc31)C(CC(=O)O)c1ccc3c(c1)CN(CC3)C2=O (stereo not shown) [Compound 104] | 130 nM | 147 nM | 0.2 nM and 0.3 nM and 1.7 nM and 1.6 nM | 30 nM | 36.5 nM | 19.2 nM | 16.4 nM | 9.3 nM | 7.4 nM
Cc1cc2cc3c1CCN(C3)C(=O)c1ccc(cc1)CCCCCn1nnc3c(C)c(cnc31)C2CC(=O)O (stereo not shown) [Compound 105] | 9.1 nM | 11.6 nM | 0.8 nM | 3.9 nM | 4.2 nM |  |  |  | 
Cc1cc2cc3c1CCN(C3)C(=O)c1ccc(cc1)CCCCCCn1nnc3c(C)c(cnc31)C2CC(=O)O (stereo not shown) [Compound 106] | 44.8 nM | 35.5 nM | 0.9 nM and 0.7 nM | 4.5 nM | 5.6 nM |  |  |  | 
Cc1c2ccc3c1nnn3CCCCCc1cnc3c(c1)cc(n3C)C(=O)N1CCc3ccc(cc3C1)[C@H]2CC(=O)O [Compound 111] | 101 nM | 122 nM | 0.4 nM and 0.2 nM | 19 nM | 19.5 nM |  |  |  | 
Cc1c2ccc3c1nnn3CCCCCc1cnc3c(c1)cc(n3C)C(=O)N1CCc3ccc(cc3C1)[C@@H]2CC(=O)O [Compound 112] | 25.5 nM | 23 nM | 0.3 nM | 2.9 nM | 2.7 nM |  |  |  | 
Cc1c2ccc3c1nnn3CCCCCc1ccc3c(c1)cc(n3C)C(=O)N1CCc3ccc(cc3C1)[C@H]2[C@H](C)C(=O)O [Compound 114] | 8.2 nM | 9.8 nM | 0.4 nM | 0.1 nM | 0.2 nM |  |  |  | 
Cc1c2ccc3c1nnn3CCCCCOc1ccc(cc1)C(=O)N1CCc3ccc(cc3C1)[C@@H]2[C@@H](C)C(=O)O [Compound 118] | 4.4 nM and 3.6 nM and 6.5 nM | 3.8 nM | 0.4 nM | 2.5 nM | 4.2 nM |  |  |  | 
Cc1cc2ncc1[C@H](CC(=O)O)c1ccc3c(c1)CN(CC3)C(=O)c1c(F)cc(cc1F)CCCCCO2 [Compound 120] | 7.6 nM and 4.6 nM and 6.3 nM | 7.9 nM | 0.3 nM and 0.4 nM | 1.4 nM |  |  |  |  | 
Cn1cc2c3ccc(cc31)CCCCOc1ccc(cn1)C(CC(=O)O)c1ccc3c(c1)CN(CC3)C2=O (stereo not shown) [Compound 121] |  | > 10000 nM | > 990 nM | > 1000 nM |  |  |  |  | 
Cc1cc2ncc1[C@@H](CC(=O)O)c1ccc3c(c1)CN(CC3)C(=O)c1c(F)cc(cc1F)CCCCCO2 [Compound 122] | 54.2 nM | 47 nM | 52.8 nM and 42.8 nM | 17.6 nM | 30.2 nM |  |  |  | 
Cc1c2cnc3c1nnn3CCCCCc1ccc(cc1)C(=O)N1CCc3ccc(cc3C1)[C@@H]2CC(=O)O [Compound 124] | 12.5 nM | 9 nM | 0.6 nM | 7.6 nM | 7.3 nM |  |  |  | 
Cc1cc2ncc1C(CC(=O)O)c1ccc3c(c1)CN(CC3)C(=O)c1cn(C)c3ccc(cc13)CCCCCO2 (stereo not shown) [Compound 126] |  | > 10000 nM | > 990 nM | > 1000 nM |  |  |  |  | 
